Tests used:
IκB = assay: TNFα stimulated IκB phosphorylation in proximal tubular cells, Western-blot; assay type: cell-based, mouse; conditions: proximal tubular cells treated with PPS (400 μg/ml, ½ hour) before TNFα 10 ng/ml
Procedure: The activation of NF-κB and mitogen activated protein kinases including p38, JNK (Jun N-terminal kinase), and ERK (extracellular signal regulated kinase) pathways play an essential role in proinflammatory actions of TNFα. Thus, it was examined whether PPS affected the phosphorylation of IκB, ERK, p38, and JNK by TNFα. Proximal tubular cells were allowed to grow to 70% confluency in […] petri-dish. Cell lysates were collected before or 15, 30, 60, and 120 minutes after TNFα treatment (10 ng/ml). Cells in some dishes were pre-incubated with PPS (400 μg/ml) for ½ hour before exposure to TNFα. The levels of phosphorylated IκB, ERK, p38, and JNK were determined by Western-blots. Briefly, equal amounts of protein samples (10-20 μg/lane) were loaded onto SDS-PAGE gels. After electrophoresis, proteins were transferred to nitrocellulose membranes and blotted with antibody against phosphorylated IκB, ERK, p38, or JNK (Cell signaling, Boston, Mass.). After the first analysis, the membranes were stripped to re-probe with antibody against total IκB, ERK, p38 or JNK, and ERK and finally with antibody against β-actin (Cell signaling, Boston, Mass.).

[1] = Plasma lipid and lipoprotein analyses in WHHL rabbits; assay type: in vivo, rabbit; conditions: for Free cholesterol / Phospholipids / Total cholesterol / Triglycerides: mean ± SEM, 5 animals
Procedure: Blood was drawn from rabbits after a 12-hour fast into tubes containing EDTA at the beginning of the study, every two weeks during treatment with the atherogenic diet, and at the end of the study. The total cholesterol and triglyceride concentrations (Sigma) as well as unesterified cholesterol and phospholipids (Wako Chemicals, Richmond, Va.) were determined on plasma samples using enzymatic methods on a Hitachi 911 Autoanalyzer (Boehringer Mannheim). Post-heparin hepatic lipase activity was determined as described (Iverius P H, Brunzell J D. Am J Physiol 1985; 249: E107-E114).

[2] = system: MCP-1, RANTES, CXCL1, MIP-2, ICAM-1, and iNOS mRNA; assay: TNFα induced pro-inflammatory gene expression in proximal tubular cell line, real-time PCR; assay type: cell-based, mouse; conditions: PPS 200 μg/ml for 1 hour before TNFα 10 ng/ml, RNA 4 hours later
Procedure: (§1) A proximal tubular cell line obtained from mice transgenic for SV40 T antigen was grown in DMEM containing 10% FBS. For the measurement of TNFα-stimulated gene expression, 1×10^5 proximal tubular cells were transferred to each well of a 6-well-plate. After placing the cells in 0.1% FBS medium for 24 hours, 10 ng/ml of TNFα was added to test wells. Total RNA was isolated from all wells 4 hours later. MCP-1, RANTES, CXCL1, MIP-2, ICAM-1, and iNOS mRNA levels were determined by real-time PCR as described above and corrected by β-actin mRNA levels. TNFα stimulated MCP-1 and RANTES production and release into the medium was measured in TNFα (10 ng/ml) treated and control cells at 24 hours. The amount of MCP-1 or RANTES in the medium was measured by ELISA (Invitrogen Corporation (Carlsband, Calif.).
(§2) To determine the effect of PPS on TNFα induced upregulation of proinflammatory genes, proximal tubular cells were pre-treated with PPS (200 μg/ml) for 1 hour before the addition of TNFα (10 ng/ml). MCP-1, RANTES, CXCL1, MIP-2, ICAM-1, and iNOS mRNA levels were determined 4 hours later by real-time PCR. MCP-1 and RANTES production was also measured.

WHHL rabbits = conditions: rabbit, in vivo, po
Procedure: 3-month-old female WHHL rabbits, obtained from the Institute for Experimental Animals, Kobe University School of Medicine (Shiomi M, et al., Arterioscler Thromb 1994; 14: 931-937), were fed a standard diet supplemented with 0.5% cholesterol for 45 days. […] Twenty rabbits with established lesions were randomized into two groups, one (PPS group) receiving PPS (30 mg/kg BW daily) added to the drinking water, and the other (Control group) receiving tap water for the next 30 days. […] After 30 days, the rabbits were anesthetized with ketamine hydrochloride and xylazine (60 mg and 6 mg/kg BW, respectively), and exsanguinated. Five from each group were perfusion-fixed with 4% phosphate-buffered formaldehyde solution through the femoral vein.

TIMP-1, -2, and -3 = assay: Reverse zymography of aortic extracts; assay type: in vivo, rabbit; conditions: PPS-treated WHHL rabbits, 75 days HC-diet
Procedure: MMP activity in aortic extracts and conditioned media from monocytes was assessed, as previously described (Jacot T A, et al., Lab Invest. 1996; 75:791-79). Briefly, aortic segments were homogenized and extracted in RIPA buffer (25 mM Tris, pH 7.4, 150 mM KCl, 5 mM EDTA, 1% Nonidet P-40, 0.5% sodium deoxycholate, and 0.1% SDS). Insoluble material was precipitated by centrifugation, and soluble extracts were collected and stored at −20° C. for further analysis. For in vitro experiments, cell supernatants were centrifuged to remove cellular debris, and diluted appropriately to normalize for cell number. Aortic extracts and conditioned media were then mixed with sample buffer (1% SDS, 0.08 M Tris pH 6.8, 4% glycerol, and 0.006% bromophenol blue), and loaded onto a 10% gelatin polyacrylamide gel, and processed as described (Jacot T A, et al., Lab Invest. 1996; 75:791-79). For reverse zymography, samples were loaded onto a 15% gelatin polyacrylamide gel containing 0.5% porcine gelatin and 6 μg recombinant gelatinase A, and processed as described (Elliot S J, et al., J Am Soc Nephrol. 1999; 10: 62-68).

macrophages (F4/80) = assay: F4/80 immunostaining for macrophage infiltration in kidney; assay type: in vivo, mouse; conditions: PPS treated 22 month-old diabetic mice
From the text: Paraffin sections from non-diabetic and diabetic mice were deparaffinized prior to staining for apoptosis, makers for inflammation such as macrophages (F4/80, 1:100, Caltag Laboratories, Burlingame, Calif.) and phosphorylated NF-κB (p65 (Ser276), 1:25, Cell Signaling Technology, Inc, Danvers, Mass.), markers for oxidative stress, i.e., nitrotyrosine (1:140, Upstate Biotechnology Inc, Billerica, Mass.) and malondialdehyde (MDA, 1:100, Alpha Diagnostic International Inc, San Antonio, Tex.), and markers for endoplasmic reticulum (ER) stress, i.e., phosphorylated pancreatic ER kinase (PERK, 1:5, Santa Cruz Biotechnology, Santa Cruz, Calif.), and phosphorylated eukaryotic initiation factor 2α (eIF2α, 1:50, Stressgen Bioreagents Corp, Norwalk, Conn.).
Stained sections were examined under light microscopy (Zeiss Axioskop, Germany). The cortical area of the kidney was digitized under ×10 objective low power with a Sony 3CCD color video camera and a meta imaging series software (Molecular Devices, Downingtown, Pa.). The area of positively stained tubules and glomeruli was measured and expressed as the percentage of total cortical area. The intensity of the staining was also assessed using the color differentiation program.

MCP-1 and RANTES = assay: TNFα stimulated MCP-1 and RANTES production by proximal tubular cells, ELISA; assay type: cell-based, mouse; conditions: PPS 200 μg/ml pretreatment, TNFα 10 ng/ml, p<0.01 vs. TNFα alone
Procedure: as §1, §2

[3] = 45 days HC-diet, PPS group before start of PPS
[4] = 75 days HC-diet, PPS in drinking water for the last 30 days
[5] = Baseline (3 months of age), PPS group before treatment

With pentosan polysulfate [PPS] the “decrease in the levels of IκB phosphorylation” value (IκB) was 40-60%, the Free cholesterol [1, 3] was 1038.52 ± 128.80 mg/dL and the Phospholipids [1, 3] was 1241.09 ± 142.75 mg/dL. It also gave a Total cholesterol [1, 3] of 2133.28 ± 85.04 mg/dL, a Triglycerides [1, 3] of 331.28 ± 86.61 mg/dL and a Free cholesterol [1, 4] of 785.46 ± 93.22 mg/dL. For the same substance, the Phospholipids [1, 4] was 878.17 ± 107.98 mg/dL, the Total cholesterol [1, 4] was 1565.40 ± 212.07 mg/dL and the Triglycerides [1, 4] was 184.10 ± 30.19 mg/dL. The Free cholesterol [1, 5] was 282.92 ± 13.03 mg/dL, the Phospholipids [1, 5] was 574.59 ± 26.44 mg/dL and the Total cholesterol [1, 5] was 901.18 ± 50.30 mg/dL. For the same substance, the Triglycerides [1, 5] was 762.91 ± 72.13 mg/dL, the “plasma lipid levels after 75 days of HC-diet versus 45 days” value ([1]; PPS-treated WHHL rabbits, a trend towards reduction was observed) was “not significantly different” and the “TNFα stimulation of MCP-1, RANTES, CXCL-1, MIP-2, ICAM-1 and iNOS mRNA expression” value [2] was “largely prevented”. The bleeding (WHHL rabbits) was “not observed”, the “activity of TIMP-1, -2, and -3 in aortic extracts” value (TIMP-1, -2, and -3) was “marked increase” and the “macrophage infiltration in kidney (F4/80 immunostaining)” value (macrophages (F4/80)) was “largely prevented”. The “TNFα stimulated MCP-1 and RANTES protein production” value (MCP-1 and RANTES) was “decreased”.
